Test results: patent US8962627B2, “Oxime derivatives and their use as allosteric modulators of metabotropic glutamate receptors” (Prestwick Chemical, Inc., priority 2009, dated 2015)
Where a name gives a salt, the structure may show the parent alone.

Row | melting point | SMILES
1 | 275 to 278 °C | ON=c1cc(-c2cc3ccccc3cn2)oc2cccc(F)c12 [Example 9]
2 | 270 to 272 °C | ON=c1cc(-c2cc3ccccc3cn2)oc2c(Cl)cccc12 [Example 8, 8-chloro-2-isoquinolin-3-yl-chromen-4-one oxime]
3 | 280 °C (dec.) | N#Cc1ccc2oc(-c3cc4ccccc4cn3)cc(=NO)c2c1 [Example 38, 6-cyano-2-isoquinolin-3-yl-chromen-4-one oxime]
4 | 283 to 285 °C | ON=c1cc(-c2cc3ccccc3cn2)oc2cc(-c3ccc(-c4ccccc4)cc3)ccc12 [Example 48, 7-(4-biphenyl)-2-isoquinolin-3-yl-chromen-4-one oxime]
5 | 292 to 297 °C | ON=c1cc(-c2cc3ccccc3cn2)oc2cc(C#Cc3ccccc3Cl)ccc12 [Example 32, 7-(2-chlorophenyl)ethynyl-2-isoquinolin-3-yl-chromen-4-one oxime]
6 | 268 to 270 °C | ON=c1cc(-c2cc3c(Br)cccc3cn2)oc2ccccc12 [Example 17, 2-(5-bromo-isoquinolin-3-yl)-chromen-4-one oxime]
7 | 272 to 275 °C | Nc1cccc(C#Cc2ccc3c(=NO)cc(-c4cc5ccccc5cn4)oc3c2)c1 [Example 29, 7-(3-aminophenyl)ethynyl-2-isoquinolin-3-yl-chromen-4-one oxime]
8 | 267 to 270 °C | Cc1cc2c(=NO)cc(-c3cc4ccccc4cn3)oc2cc1Br [Example 3, 7-bromo-2-isoquinolin-3-yl-6-methyl-chromen-4-one oxime]
9 | 275 to 278 °C | ON=c1cc(-c2cc3ccccc3cn2)oc2cc(-c3ccccc3)ccc12 [Example 47, 2-isoquinolin-3-yl-7-phenyl-chromen-4-one oxime]
10 | 248 to 250 °C | Cc1cc2c(=NO)cc(-c3cc4ccccc4cn3)oc2cc1C#Cc1ccccc1 [Example 25]

Further lines, the compound ahead of its results:

Row | SMILES | melting point
11 | CN(C)CCOc1ccc2oc(-c3cc4cccn4cn3)cc(=NO)c2c1.Cl | > 275 °C (dec.)
12 | Cl.NCCOc1ccc2oc(-c3cc4cccn4cn3)cc(=NO)c2c1 | > 270 °C (dec.)
13 | ON=c1cc(-c2cc3cccn3cn2)oc2ccc(OCCc3ccc(F)cc3)cc12 (as salt: hydrochloride) [Example 109, 6-[2-(4-fluoro-phenyl)-ethoxy]-2-pyrrolo[1,2-c]pyrimidin-3-yl-chromen-4-one oxime, hydrochloride] | 234 to 236 °C
14 | COc1cccc2cnc(-c3cc(=NO)c4ccccc4o3)cc12 [Example 19, 2-(5-methoxy-isoquinolin-3-yl)-chromen-4-one oxime] | 245 to 247 °C
15 | O=c1[nH]c(-c2c/c(=N\O)c3ccccc3o2)cc2ccccc12 [Example 72, 3-{4-[(E)-Hydroxyimino]-4H-chromen-2-yl}-2H-isoquinolin-1-one] | 310 to 315 °C (dec.)
16 | CN(C)CCCOc1ccc2oc(-c3cc4cccn4cn3)cc(=NO)c2c1.Cl | > 270 °C (dec.)
17 | ON=c1cc(-c2cc3cc[nH]c3cn2)oc2ccccc12 [Example 75, 2-(1H-Pyrrolo[2,3-c]pyridin-5-yl)-chromen-4-one oxime] | 270 to 275 °C (dec.)
18 | Cl.O=S1(=O)CCN(CCOc2ccc3oc(-c4cc5sccc5cn4)cc(=NO)c3c2)CC1 | 195 to 197 °C
19 | Cc1cc(C)n2cnc(-c3cc(=NO)c4ccccc4o3)cc12 [Example 64, 2-(5,7-dimethyl-Pyrrolo[1,2-c]pyrimidin-3-yl)-chromen-4-one oxime] | > 250 °C (dec.)
20 | ON=c1cc(-c2cc3cccn3cn2)oc2ccc(OCCn3ccnc3)cc12 (as salt: sodium) [Example 105, 6-(2-imidazol-1-O-ethoxy)-2-pyrrolo[1,2-c]pyrimidin-3-yl-chromen-4-one oxime] | > 250 °C (dec.)
21 | ON=c1cc(-c2ncc3ccccc3n2)oc2ccccc12 [Example 110, 2-quinazolin-2-yl-chromen-4-one oxime] | 239 to 241 °C
